In ChEMBL document CHEMBL5291721, “A preclinical secondary pharmacology resource illuminates target-adverse drug reaction associations of marketed drugs” (Nat Commun, 2023) one finds AC50 data, which are given here for 12 compounds.

What is called AC50 is the midpoint of the concentration-response curve, whichever way the signal moves. Lower therefore signals greater potency.

The target in test [1] is T1, Muscarinic acetylcholine receptor M2 (Homo sapiens, UniProt P08172).
T1 sequence (P08172 whole entry): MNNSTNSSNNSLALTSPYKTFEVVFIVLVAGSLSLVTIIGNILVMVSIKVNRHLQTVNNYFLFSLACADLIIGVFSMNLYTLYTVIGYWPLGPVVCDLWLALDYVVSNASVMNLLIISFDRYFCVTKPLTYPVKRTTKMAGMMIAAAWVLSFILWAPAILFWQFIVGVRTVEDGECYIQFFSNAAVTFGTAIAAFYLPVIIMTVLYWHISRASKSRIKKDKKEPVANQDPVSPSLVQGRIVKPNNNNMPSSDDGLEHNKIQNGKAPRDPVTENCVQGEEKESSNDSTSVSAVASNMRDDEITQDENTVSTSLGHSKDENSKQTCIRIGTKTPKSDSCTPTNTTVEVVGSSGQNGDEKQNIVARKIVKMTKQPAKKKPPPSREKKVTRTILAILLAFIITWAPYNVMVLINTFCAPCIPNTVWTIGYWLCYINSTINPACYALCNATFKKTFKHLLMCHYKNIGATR

Test [2] concerns the target Histamine H3 receptor (Homo sapiens, UniProt Q9Y5N1).
For test [3], the target named is Prostaglandin G/H synthase 1 (Homo sapiens, UniProt P23219). The format is functional.
Test [4] deals with T2, Alpha-1A adrenergic receptor (Homo sapiens, UniProt P35348).
T2 sequence (P35348 whole entry): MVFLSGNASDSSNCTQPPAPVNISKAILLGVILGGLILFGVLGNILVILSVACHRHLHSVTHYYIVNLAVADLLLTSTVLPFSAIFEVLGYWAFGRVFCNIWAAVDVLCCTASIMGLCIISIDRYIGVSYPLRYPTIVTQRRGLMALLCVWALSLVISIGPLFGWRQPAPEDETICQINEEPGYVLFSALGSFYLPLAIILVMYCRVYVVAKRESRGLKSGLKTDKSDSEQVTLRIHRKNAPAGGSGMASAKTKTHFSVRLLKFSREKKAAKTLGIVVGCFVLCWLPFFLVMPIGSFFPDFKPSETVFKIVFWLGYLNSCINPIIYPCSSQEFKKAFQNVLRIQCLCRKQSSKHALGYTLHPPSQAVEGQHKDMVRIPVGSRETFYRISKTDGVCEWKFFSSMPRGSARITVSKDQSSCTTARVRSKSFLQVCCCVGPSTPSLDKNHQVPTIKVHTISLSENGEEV
The format is functional, cell-based.

The target of test [5] is T3, Progesterone receptor (Homo sapiens, UniProt P06401).
T3 sequence (P06401 whole entry): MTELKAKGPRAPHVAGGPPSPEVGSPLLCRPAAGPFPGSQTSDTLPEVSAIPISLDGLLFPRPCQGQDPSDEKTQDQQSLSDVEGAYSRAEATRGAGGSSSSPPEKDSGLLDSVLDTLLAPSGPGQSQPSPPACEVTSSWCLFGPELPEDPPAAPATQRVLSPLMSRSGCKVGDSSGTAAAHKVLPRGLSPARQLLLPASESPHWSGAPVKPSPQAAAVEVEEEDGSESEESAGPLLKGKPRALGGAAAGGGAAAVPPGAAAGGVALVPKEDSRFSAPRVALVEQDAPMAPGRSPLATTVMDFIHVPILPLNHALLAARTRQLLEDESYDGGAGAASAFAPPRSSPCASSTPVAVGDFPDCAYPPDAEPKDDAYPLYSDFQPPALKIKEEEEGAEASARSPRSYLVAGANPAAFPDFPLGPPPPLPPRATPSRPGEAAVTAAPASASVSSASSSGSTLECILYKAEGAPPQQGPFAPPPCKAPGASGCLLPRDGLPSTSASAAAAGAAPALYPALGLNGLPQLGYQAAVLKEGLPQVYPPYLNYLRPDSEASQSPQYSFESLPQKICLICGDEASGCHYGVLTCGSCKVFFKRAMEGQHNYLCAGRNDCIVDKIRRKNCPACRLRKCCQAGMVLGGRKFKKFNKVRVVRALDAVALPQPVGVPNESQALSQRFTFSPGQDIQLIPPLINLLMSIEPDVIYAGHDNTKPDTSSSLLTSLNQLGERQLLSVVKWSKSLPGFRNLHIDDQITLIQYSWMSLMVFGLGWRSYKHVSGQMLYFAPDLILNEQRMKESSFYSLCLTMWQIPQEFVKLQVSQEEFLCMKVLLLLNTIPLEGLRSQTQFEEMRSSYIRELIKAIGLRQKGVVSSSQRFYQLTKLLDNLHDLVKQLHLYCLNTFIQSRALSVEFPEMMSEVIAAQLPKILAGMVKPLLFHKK

For test [6], the target named is D(1A) dopamine receptor (Homo sapiens, UniProt P21728).
Test [7] has as its target T4, Thromboxane A2 receptor (Homo sapiens, UniProt P21731).
T4 sequence (P21731 whole entry): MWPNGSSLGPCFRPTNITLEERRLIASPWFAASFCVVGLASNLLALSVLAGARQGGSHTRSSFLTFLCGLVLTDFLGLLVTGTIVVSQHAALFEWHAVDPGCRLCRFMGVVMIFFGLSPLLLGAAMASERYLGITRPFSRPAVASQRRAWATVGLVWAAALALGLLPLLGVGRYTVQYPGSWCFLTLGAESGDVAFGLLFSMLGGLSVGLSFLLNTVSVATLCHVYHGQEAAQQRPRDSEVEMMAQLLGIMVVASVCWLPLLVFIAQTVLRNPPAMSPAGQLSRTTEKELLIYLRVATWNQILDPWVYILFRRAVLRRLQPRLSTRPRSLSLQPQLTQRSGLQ
The format is functional, cell-based.

In test [8] the target is 3',5'-cyclic-AMP phosphodiesterase 4A (Homo sapiens, UniProt P27815). The format is functional.
Test [9] concerns the target T2, Alpha-1A adrenergic receptor. The format is functional, cell-based. The source holds these as a separate data set.
For test [10], the target named is Mu-type opioid receptor (Homo sapiens, UniProt P35372).
Also: assay procedure not described here.

3',5'-cyclic-AMP phosphodiesterase 4A, sequence (P27815 whole entry): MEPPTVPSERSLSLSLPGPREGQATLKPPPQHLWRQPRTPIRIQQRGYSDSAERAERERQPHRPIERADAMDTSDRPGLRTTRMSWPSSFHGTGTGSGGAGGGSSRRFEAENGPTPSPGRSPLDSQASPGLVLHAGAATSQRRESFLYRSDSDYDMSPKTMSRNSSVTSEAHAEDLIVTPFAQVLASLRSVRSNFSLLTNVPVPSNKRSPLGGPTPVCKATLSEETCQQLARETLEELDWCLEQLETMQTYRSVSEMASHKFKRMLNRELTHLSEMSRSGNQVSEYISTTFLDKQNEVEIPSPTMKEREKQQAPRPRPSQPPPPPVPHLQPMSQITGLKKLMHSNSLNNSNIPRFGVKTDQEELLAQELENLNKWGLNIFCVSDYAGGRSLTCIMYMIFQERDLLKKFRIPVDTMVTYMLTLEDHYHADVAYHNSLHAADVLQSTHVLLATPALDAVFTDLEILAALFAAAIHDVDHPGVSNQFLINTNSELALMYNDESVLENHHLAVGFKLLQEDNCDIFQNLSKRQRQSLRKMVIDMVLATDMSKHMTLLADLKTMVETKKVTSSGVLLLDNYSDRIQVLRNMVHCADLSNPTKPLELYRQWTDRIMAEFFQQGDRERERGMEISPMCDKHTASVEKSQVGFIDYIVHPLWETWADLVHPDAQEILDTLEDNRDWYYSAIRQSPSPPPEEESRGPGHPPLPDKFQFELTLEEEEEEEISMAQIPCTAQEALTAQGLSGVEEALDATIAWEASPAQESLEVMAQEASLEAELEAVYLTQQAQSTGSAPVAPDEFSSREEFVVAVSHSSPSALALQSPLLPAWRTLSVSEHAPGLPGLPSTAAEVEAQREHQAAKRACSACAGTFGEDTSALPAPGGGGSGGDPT
Histamine H3 receptor, sequence (Q9Y5N1 whole entry): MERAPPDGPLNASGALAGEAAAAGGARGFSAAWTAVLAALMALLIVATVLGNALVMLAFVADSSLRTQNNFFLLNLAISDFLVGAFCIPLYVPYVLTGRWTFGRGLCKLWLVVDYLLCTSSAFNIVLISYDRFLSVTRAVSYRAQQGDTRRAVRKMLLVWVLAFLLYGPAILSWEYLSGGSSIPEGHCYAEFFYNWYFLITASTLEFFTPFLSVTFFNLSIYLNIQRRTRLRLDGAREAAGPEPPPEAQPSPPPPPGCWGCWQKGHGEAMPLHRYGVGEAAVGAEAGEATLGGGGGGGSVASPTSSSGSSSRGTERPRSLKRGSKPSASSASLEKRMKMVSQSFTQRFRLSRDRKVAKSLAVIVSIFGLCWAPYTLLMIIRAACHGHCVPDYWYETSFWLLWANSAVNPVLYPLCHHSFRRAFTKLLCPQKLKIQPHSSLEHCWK
D(1A) dopamine receptor, sequence (P21728 whole entry): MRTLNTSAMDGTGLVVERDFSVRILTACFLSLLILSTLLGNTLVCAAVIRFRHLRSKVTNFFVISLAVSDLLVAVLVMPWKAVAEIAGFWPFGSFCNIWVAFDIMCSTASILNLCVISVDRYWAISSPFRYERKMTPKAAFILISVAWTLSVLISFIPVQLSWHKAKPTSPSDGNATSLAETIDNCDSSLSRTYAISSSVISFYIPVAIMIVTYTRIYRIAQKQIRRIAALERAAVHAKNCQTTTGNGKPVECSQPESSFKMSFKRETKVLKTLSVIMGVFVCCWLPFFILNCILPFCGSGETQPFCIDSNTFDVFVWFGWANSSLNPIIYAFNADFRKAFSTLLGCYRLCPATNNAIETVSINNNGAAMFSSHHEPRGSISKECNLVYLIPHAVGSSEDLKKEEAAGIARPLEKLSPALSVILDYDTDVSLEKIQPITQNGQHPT
Prostaglandin G/H synthase 1, sequence (P23219 whole entry): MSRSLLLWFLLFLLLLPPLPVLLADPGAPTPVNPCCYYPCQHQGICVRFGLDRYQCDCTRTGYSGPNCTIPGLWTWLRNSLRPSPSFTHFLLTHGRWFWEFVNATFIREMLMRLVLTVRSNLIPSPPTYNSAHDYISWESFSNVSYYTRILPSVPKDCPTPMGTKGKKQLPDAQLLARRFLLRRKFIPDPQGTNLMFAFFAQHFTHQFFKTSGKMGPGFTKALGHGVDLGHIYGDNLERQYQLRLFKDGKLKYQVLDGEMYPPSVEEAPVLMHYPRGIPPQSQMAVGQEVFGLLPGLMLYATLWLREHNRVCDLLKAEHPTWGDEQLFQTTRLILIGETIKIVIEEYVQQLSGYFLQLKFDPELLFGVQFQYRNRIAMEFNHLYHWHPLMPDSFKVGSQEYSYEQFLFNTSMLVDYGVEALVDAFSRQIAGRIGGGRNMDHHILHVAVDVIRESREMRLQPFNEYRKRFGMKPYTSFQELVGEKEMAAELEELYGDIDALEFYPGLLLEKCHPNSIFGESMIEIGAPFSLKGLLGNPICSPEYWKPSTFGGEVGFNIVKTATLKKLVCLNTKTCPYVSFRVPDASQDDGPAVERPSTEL
Mu-type opioid receptor, sequence (P35372 whole entry): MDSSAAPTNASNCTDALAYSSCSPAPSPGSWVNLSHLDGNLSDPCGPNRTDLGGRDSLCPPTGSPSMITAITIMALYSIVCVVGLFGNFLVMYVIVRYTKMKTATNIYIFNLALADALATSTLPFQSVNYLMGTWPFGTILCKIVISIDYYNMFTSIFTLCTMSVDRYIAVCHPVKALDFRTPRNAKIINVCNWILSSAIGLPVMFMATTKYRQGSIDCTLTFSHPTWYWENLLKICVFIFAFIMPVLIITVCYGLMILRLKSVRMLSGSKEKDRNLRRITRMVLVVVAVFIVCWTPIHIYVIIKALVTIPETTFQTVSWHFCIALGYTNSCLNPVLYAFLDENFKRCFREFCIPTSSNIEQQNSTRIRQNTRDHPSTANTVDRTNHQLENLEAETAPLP

With `C#C[C@]1(OC(C)=O)CC[C@H]2[C@@H]3CCC4=CC(=O)CC[C@@H]4[C@H]3CC[C@@]21C` [NORETHINDRONE ACETATE], the AC50 in test [1] was 9.44 µM; in [2] it was more than 30 µM; in [3], more than 30 µM; in test [4], more than 30 µM; in test [5], 0.033 µM; in test [6], more than 30 µM. In addition, the half-maximal activity concentration (AC50) was more than 30 µM in [7], more than 30 µM in [8], 5.91 µM in [9] and more than 30 µM in test [10].
As to `C[C@@H]1O[C@@H](O[C@H]2C[C@@H](O)[C@]3(CO)[C@H]4[C@H](O)C[C@]5(C)[C@@H](C6=CC(=O)OC6)CC[C@]5(O)[C@@H]4CC[C@]3(O)C2)[C@H](O)[C@H](O)[C@H]1O` [OUABAIN], the AC50 in [1], in test [2], in test [3], in test [4], in [5] and in [6] was more than 30 µM in each case. For the same compound, the AC50 in test [7], in test [8], in [9] and in test [10] was more than 30 µM each time.
For `CC(C)N1CCOC(c2cccc(C(F)(F)F)c2)C1` (stereo not given) [OXAFLOZANE], the half-maximal activity concentration (AC50) in test [1] was 23.5 µM; in [2], more than 30 µM; in test [3] it was more than 30 µM; in [4], more than 30 µM; in test [5] it was more than 30 µM; in test [6], more than 30 µM. Moreover, the AC50 in test [7], in [8], in test [9] and in test [10] was more than 30 µM each time.
For the compound `COc1ccc(C(=O)c2ccccc2)c(O)c1` [OXYBENZONE], the half-maximal activity concentration (AC50) is more than 30 µM in test [1]; more than 30 µM in test [2]; more than 30 µM in test [3]; more than 30 µM in [4]; 25.7 µM in test [5]; more than 30 µM in [6]. In addition, the half-maximal activity concentration (AC50) was more than 30 µM in test [7], 18.1 µM in [8], more than 10 µM in test [9] and more than 30 µM in test [10].
With `O=C1Nc2ccccc2C1(c1ccc(O)cc1)c1ccc(O)cc1` [OXYPHENISATINE], the AC50 is 11.9 µM in test [1]; more than 30 µM in test [2]; more than 30 µM in test [3]; more than 30 µM in test [4]; more than 30 µM in test [5]; more than 30 µM in [6]. For the same compound, the AC50 in [7], in test [8], in test [9] and in test [10] was more than 30 µM each time.
Regarding `CN1C(C(=O)Nc2ccccn2)=C(OC(=O)/C=C/c2ccccc2)c2ccccc2S1(=O)=O` [PIROXICAM CINNAMATE], the AC50 in test [1], in [2], in [3], in test [4], in test [5] and in [6] was more than 30 µM throughout. The AC50 in [7], in test [8], in [9] and in test [10] was more than 30 µM in each case.
`Cc1c(C(C)C)c(=O)n(-c2ccccc2)n1C` [PROPYPHENAZONE]: the half-maximal activity concentration (AC50) in test [1], in [2], in test [3], in test [4], in test [5] and in test [6] was more than 30 µM in each case. The AC50 in test [7], in test [8], in test [9] and in test [10] was more than 30 µM each time.
Turning to `Cc1ncc(CO)c(CO)c1O` [PYRIDOXINE], the AC50 is more than 30 µM in [1]; more than 30 µM in test [2]; more than 3 µM in test [3]; more than 30 µM in [4]; more than 30 µM in test [5]; more than 30 µM in test [6]. Moreover, the AC50 in test [7], in [8], in test [9] and in [10] was more than 30 µM each time.
As to `Cc1cn(-c2cc(NC(=O)c3ccc(C)c(Nc4nccc(-c5cnccn5)n4)c3)cc(C(F)(F)F)c2)cn1` [RADOTINIB], the AC50 in test [1], in [2], in test [3], in test [4], in test [5] and in test [6] was more than 30 µM throughout. The AC50 in test [7] was more than 30 µM; in test [8], more than 30 µM; in test [9], more than 30 µM; in test [10] it was more than 3 µM.
For `CNC(=O)c1cnn(-c2nc(N)c3ncn([C@@H]4O[C@H](CO)[C@@H](O)[C@H]4O)c3n2)c1` [REGADENOSON ANHYDROUS], the concentration at half-maximal activity (AC50) is more than 30 µM in test [1]; more than 30 µM in test [2]; more than 30 µM in test [3]; 28.2 µM in [4]; more than 30 µM in test [5]; more than 30 µM in test [6]. Besides, the AC50 in test [7], in [8], in test [9] and in [10] was more than 30 µM each time.
For `CO[C@H]1/C=C/O[C@@]2(C)Oc3c(C)c(O)c4c(c3C2=O)C2=NC3(CCN(CC(C)C)CC3)NC2=C(NC(=O)/C(C)=C\C=C\[C@H](C)[C@H](O)[C@@H](C)[C@@H](O)[C@@H](C)[C@H](OC(C)=O)[C@@H]1C)C4=O` [RIFABUTIN], the AC50 in test [1] was more than 30 µM; in [2], more than 30 µM; in test [3], 17.4 µM; in test [4], more than 30 µM; in test [5], more than 30 µM; in test [6] it was more than 30 µM. Besides, the AC50 in [7], in test [8], in test [9] and in test [10] was more than 30 µM throughout.
With `COC(=O)N(C)c1c(N)nc(-c2nn(Cc3ccccc3F)c3ncccc23)nc1N` [RIOCIGUAT], the half-maximal activity concentration (AC50) in test [1], in test [2], in test [3], in [4], in test [5] and in test [6] was more than 30 µM in each case. Besides, the AC50 in test [7], in [8], in test [9] and in [10] was more than 30 µM each time.
